The values below come from publication PMC5321741, “Arylmethylamino steroids as antiparasitic agents” (Nature Communications, 2017).

Series [1] relates to P. berghei transmission from mice to Anopheles gambiae mosquitoes. Put plainly: in vivo transmission-blocking assay. Also noted: species or system Plasmodium berghei. The settings on record: 100 mg kg−1 i.p. daily, three doses; 4 days post passage. As for the experimental part:
We further tested the activity of compound 1o on parasite transmission from mice to Anopheles gambiae mosquitoes. For this, P. berghei-infected mice received a daily injection of compound 1o for 3 days starting 24 h post passage and were exposed to mosquito bites 24 h after each injection. Tween 80 (Tw80) and methylene blue (MB) served as negative and positive controls, respectively. As with MB, compound 1o limited parasite multiplication in mice, albeit to a lesser extent (Fig. 3a). […]
Figure 3 Effect of compound 1o on P. berghei multiplication in mice and on parasite transmission to mosquitoes. […] Parasitemia was monitored daily and the mean± s.d. of three independent experiments are plotted. […] (b) Prevalence (percentage of infected mosquitoes) and (c) infection intensity (mean number of parasites per infected midgut) were determined 7 days post infectious blood feeding. […] Significance for differences between treatments was calculated using generalized linear models with treatment, time, and repeats as variables, ***P value <0.001 (a–c). n, number of mosquitoes. […] Survival of treated gametocytes was calculated for each concentration relative to parasites exposed to vehicle. […]
Parasitaemia was determined daily via FACS analysis (FACSCalibur, BD Bioscience). […]

Series [2] can be described thus: aqueous kinetic solubility. It counts as physicochemical. Conditions: kinetic from dmso stock. As for the experimental part:
(§1) Pharmacokinetic data were obtained for compound 1o at the Sanford-Burnham Medical Research Institute according to established procedures. Compound solubility in an aqueous solution was measured using an automated kinetic solubility method. The concentration of the compound in a saturated pH-buffered aqueous solution was determined via UV absorbance (250–498 nm) and compared with the spectra of a precipitation-free reference solution. The plasma stability of the compound was determined at a single concentration using species-specific plasma. The percentage of parent compound remaining after 3 h was determined via LC-MS/MS. The percentage of compound 1o bound to plasma proteins was determined through rapid equilibrium dialysis and quantified via LC-MS/MS. Metabolic stability of the compound was determined at a single concentration using species-specific liver microsomes that contained cytochrome P450s, flavin-monooxygenases, carboxyl-esterases, epoxide hydrolases, and other drug-metabolizing enzymes. The quantification was carried out via LC-MS/MS. Membrane permeability of compound 1o was measured using an in vitro model for the passive transport from the gastrointestinal tract into the blood system. A double-sink parallel artificial membrane permeability assay PAMPA, in a 96-well format was employed.

Series [3] can be described thus: hepatic microsome stability. It counts as in vitro ADME. The settings on record: for remaining at 1 h: liver microsomes, read-out: Hepatic Microsome Stability % remaining after 1 h. As to the method:
as §1

The nature of series [4]: PAMPA membrane permeability. Type of series: in vitro ADME. As for the experimental part: as §1
Series [5] can be described thus: spectrophotometric titration by Fe(III). It counts as physicochemical. Conditions: 0.2 M HEPES pH 7.5 + DMSO (1:1 v/v), 25.0 °C. As for the experimental part:
Supplementary Figure 17. (left) Spectrophotometric titration of the substrates 1o and 2o by Cu(II) and Fe(III) and (right) electronic spectra of the free substrates and of corresponding metal complexes. Solvent: 0.2 M aqueous sodium HEPES buffer pH 7.5 + DMSO (1:1 v/v); T = 25.0 […]
were prepared in CH3CN (5 mM). Haematin and the substrates were mixed together in […]
The absorption spectrophotometric […]
each addition of the substrate. […]
spectrophotometric data with the Specfit program. The uncertainties on the log K values are given as 3σ with σ = standard deviation. Origin 7.0 was used to process the analytical

≈ marks a conversion by molar mass, not a printed value. Like-named read-outs stand apart in the source and are kept apart here.

As to `COc1ccc2c(c1)CCC1C2CC[C@@]2(C)C1CC[C@H]2NCc1cc2ccccc2cc1O` (stereo partly drawn) [1o], the “parasite transmission to mosquitoes” value in series [1] is “fully block parasite transmission to mosquitoes”. Moreover, the solubility in series [2] (Pion's buffer, aqueous buffer, pH 5.0, read-out: Aqueous Solubility (Pion's Buffer)) is 0.26 µg/mL (≈ 0.589 µM); in series [2] (Pion's buffer, pH 6.2, aqueous buffer, read-out: Aqueous Solubility (Pion's Buffer)), 0.38 µg/mL (≈ 0.86 µM); in series [2] (Pion's buffer, pH 7.4, aqueous buffer, read-out: Aqueous Solubility (Pion's Buffer)) it was 0.3 µg/mL (≈ 0.679 µM); in series [2] (pH-buffered aqueous solution, aqueous buffer, across a range of pH, read-out: aqueous solubility), less than 1 µg/mL. Also, in series [2] (pH-buffered aqueous solution, aqueous buffer, across a range of pH), the kinetic solubility is less than 2.3 µM. Further, the “Hepatic Microsome Stability % remaining after 1 h” value in series [3] (Human) and in series [3] (Mouse) was roughly 38% throughout. For the same molecule, the fraction remaining at 1 h in series [3] (human) and in series [3] (mouse) was 38.5% each time. In addition, the “PAMPA Pe” value in series [4] (Donor pH 5.0, Acceptor pH 7.4) amounted to 0 cm/s; in series [4] (Donor pH 6.2, Acceptor pH 7.4) it was 0 cm/s; in series [4] (Donor pH 7.4, Acceptor pH 7.4), 0 cm/s. Moreover, the “PAMPA permeability in words” value in series [4] (all 3 pH levels, compound well embedded in the filter membrane) was “very poorly permeable at all 3 pH levels tested”.

As to `COc1ccc2c(c1)CCC1C2CC[C@@]2(C)C1CC[C@@H]2NCc1cc2ccccc2cc1O` (stereo partly drawn) [2o], the “log K2o.Fe” value in series [5] was found to be 4.3.
